Measurements published in patent publication US5958890A, “Tricyclic compounds useful for inhibition of G-protein function and for treatment of proliferative diseases” (Schering Corporation, priority 1997, dated 1999).

Tests used:
[1] = biological target: farnesyl protein transferase (Homo sapiens, UniProt P49354+P49356); assay: FPT inhibition, in vitro enzyme assay (procedure of WO 95/10516); type: biochemical
COS Cell = COS Cell IC50 (Cell-Based Assay, procedure of WO 95/10516)
Method: FPT IC50 (inhibition of farnesyl protein transferase, in vitro enzyme assay) and COS Cell IC50 (Cell-Based Assay) were determined following the assay procedures described in WO 95/10516, published Apr. 20, 1995. GGPT IC50 (inhibition of geranylgeranyl protein transferase, in vitro enzyme assay), Cell Mat Assay, and anti-tumor activity (in vivo anti-tumor studies) could be determined by the assay procedures described in WO 95/10516. The disclosure of WO 95/10516 is incorporated herein by reference thereto.

IC50 [1] | Compound | IC50 (COS Cell)
38.6 pM | NC(=O)N1CC[C@H](CC(=O)N2CCC(C3c4ncc(Br)cc4CCc4cc(Cl)cc(Cl)c43)CC2)C1 (single isomer, unassigned) [Example 1] | –
– | NC(=O)N1CC[C@@H](CC(=O)N2CCC(C3c4ncc(Br)cc4CCc4cc(Cl)cc(Cl)c43)CC2)C1 (single isomer, unassigned) [Example 2] | 30 pM
